“Also recorded” adds a separate entry of the source.
Key:
H1 spheroids = test: Three day CHIR pulse in spheroids, germ layer staining; format: cell-based, human; conditions: 3-day CHIR pulse alone, day 40 spheroids
Description: Organoids were fixed in 4% paraformaldehyde for 20 min at room temperature and washed with PBS three times for 10 min each at room temperature before allowing to sink in 30% sucrose at 4° C. […] Statistical analysis of quantifications performed from imaging data was performed using Student's t-test for significance.

[1] = test system: microfilament patterned organoids; test: CHIR pulse after neuroepithelial budding in microfilament organoids; format: cell-based, human
Source text: At day 3, half media was changed with EB media without bFGF and Y-27632. On day 5, EBs were moved with an angled cut P200 tip to 24-well low-attachment plates (Sigma, cat. #CLS3473) with neural induction media (NI) as previously described in WO 2014/090993 A1 (incorporated herein by reference) (FIG. 1a, step 3). Media was changed every other day. On day 11, or when polarized neural ectoderm was visible on the surface, organoids were transferred to droplet of Matrigel as previously described in WO 2014/090993 A1 but kept in NI media (FIG. 1a, transition from step 3 to 4). At day 13 (2 days after Matrigel embedding), media was changed to an improved differentiation media-A (IDMA): 1:1 of DMEM/F12 and Neurobasal (Invitrogen, cat. #21103049), 0.5% N2 supplement (Invitrogen, cat. #17502048), 2% B27-vitamin A (Invitrogen, cat. #12587010), 0.25% insulin solution (Sigma, cat. #I9278-5ML), 50 μM 2-mercaptoethanol, 1% Glutamax, 0.5% MEM-NEAA, and 1% Penicillin-Streptomycin (Sigma, cat. *P0781). Additionally, CHIR 99021 (Tocris, cat. #4423) at 3 μM was added from day 13 to 16. Media was changed every other day and organoids were moved to a spinning bioreactor or orbital shaker as described previously in WO 2014/090993 A1, on day 18 (FIG. 1a, step 5). After moving to the shaker, media was changed every 3-4 days. Shaking speed was calculated based on the throw of the shaker. […]

H9 enCORs = test: Cortical plate / basement membrane formation in enCORs with dissolved ECM components or GM6001; format: cell-based, human
Description: At day 20, media was changed to an improved differentiation+A (IDM+A): 1:1 of DMEM/F12 and Neurobasal, 0.5% N2 supplement, 2% B27+vitamin A, 0.25% insulin solution, 50 μM 2-mercaptoethanol, 1% Glutamax, 0.5% MEM-NEAA, 1% Penicillin-Streptomycin, 0.4 mM Vitamin C, and 1.49 g HEPES per 500 ml to control pH levels. Alternatively, media can be pH controlled with further bicarbonate buffering with the addition of 1 mg/ml sodium bicarbonate. At day 40, media was changed to IDM+A with 1 ml dissolved Matrigel per 50 ml media by slowly thawing the Matrigel on ice and addition to cold media to dissolve (FIG. 1a, step 6).
For treatment with matrix metalloprotease inhibitor GM6001 (Selleck Chemicals S7157), a final concentration of 3 μM was added beginning on day 30.

Compound: Cc1c[nH]c(-c2cnc(NCCNc3ccc(C#N)cn3)nc2-c2ccc(Cl)cc2Cl)n1 [CHIR, CHIR99021]
- germ layer induction and organoid morphology (H1 spheroids): did not influence germ layer induction or overall organoid morphology
- neuroepithelial bud morphology ([1]; CHIR 3 μM, day 13 to 16, after Matrigel embedding): larger, more continuous buds of neuroepithelium; also recorded: dramatic lateral expansion of neuroepithelial tissues and the generation of larger lumens with surrounding continuous neuroepithelium
- dorsal brain region identity staining (Emx1, Tbr1, Tbr2) ([1]; microfilament patterned organoids treated with CHIR): all large lobes of brain tissue within microfilament patterned organoids treated with CHIR to be dorsal cortex; also recorded: large Emx1+ regions; also recorded: virtually all large regions stained positive for dorsal cortical markers Tbr1 and Tbr2

Compound: CNC(=O)[C@H](Cc1c[nH]c2ccccc12)NC(=O)[C@@H](CC(=O)NO)CC(C)C [GM6001]
- CP formation (H9 enCORs; GM6001 3 μM continuous from day 30, 60-day enCORs): no signs of CP formation; also recorded: did not result in CP formation by 60 days

Compound: CCO [ethanol]
- ethanol concentration in the media (150 mM dose, within a day): approximately 60 mM
- course of ethanol concentration in the media (all doses tested): progressive decrease in concentration over time
- equivalent blood alcohol content (equivalent of approximately 60 mM): 0.27 % by volume

Compound: laminin
- CP formation (H9 enCORs; dissolved laminin 35 μg/ml from day 40, 60-day enCORs): no evidence of CP formation; also recorded: did not recapitulate the extent of CP formation seen with Matrigel

Source: US11884933B2, “Supported in vitro developed tissue culture and culturing methods” (IMBA—INSTITUT FÜR MOLEKULARE BIOTECHNOLOGIE GMBH, priority 2016, dated 2024)
